Experimental data published in paper PMC8330742, “New benzothieno[2,3-c]pyridines as non-steroidal CYP17 inhibitors: design, synthesis, anticancer screening, apoptosis induction, and in silico ADME profile studies” (Journal of Enzyme Inhibition and Medicinal Chemistry, 2021).
Read-outs that look alike come from different tables or passages of the source.

Columns and labels:
RPMI-8226 = assay: NCI-60 SRB screen; format: cell-based; details: Homo sapiens, single dose 10^−5 M, read-out: Growth inhibition (%)
HT-29 = assay: NCI-60 SRB screen; format: cell-based; details: Homo sapiens, single dose 10^−5 M, read-out: Growth inhibition (%)
SF-539 = assay: NCI-60 SRB screen; format: cell-based, human; details: Homo sapiens, single dose 10^−5 M, read-out: Growth inhibition (%)
SNB-19 = assay: NCI-60 SRB screen; format: cell-based; details: Homo sapiens, single dose 10^−5 M, read-out: Growth inhibition (%)
SNB-75 = assay: NCI-60 SRB screen; format: cell-based, human; details: Homo sapiens, single dose 10^−5 M, read-out: Growth inhibition (%)
U251 = assay: NCI-60 SRB screen; format: cell-based, human; details: Homo sapiens, U-251, single dose 10^−5 M, read-out: Growth inhibition (%)
MALME-3M = assay: NCI-60 SRB screen; format: cell-based, human; details: Homo sapiens, single dose 10^−5 M, read-out: Growth inhibition (%)
OVCAR-5 = assay: NCI-60 SRB screen; format: cell-based, human; details: Homo sapiens, single dose 10^−5 M, read-out: Growth inhibition (%)
A498 = assay: NCI-60 SRB screen; format: cell-based, human; details: Homo sapiens, single dose 10^−5 M, read-out: Growth inhibition (%)
PC-3 = assay: NCI-60 SRB screen; format: cell-based, human; details: Homo sapiens; single dose 10^−5 M; PC-3, Prostate cancer; read-out: Growth inhibition (%)
DU-145 = assay: NCI-60 SRB screen; format: cell-based, human; details: Homo sapiens; single dose 10^−5 M; DU-145, Prostate cancer; read-out: Growth inhibition (%)
MCF7 = assay: NCI-60 SRB screen; format: cell-based, human; details: Homo sapiens, single dose 10^−5 M, MCF-7, Breast cancer, read-out: Growth inhibition (%)
MDA-MB-231/ATCC = assay: NCI-60 SRB screen; format: cell-based, human; details: Homo sapiens; single dose 10^−5 M; MDA-MB 231/ATCC, Breast cancer; read-out: Growth inhibition (%)
BT-549 = assay: NCI-60 SRB screen; format: cell-based, human; details: Homo sapiens; single dose 10^−5 M; BT-549, Breast cancer; read-out: Growth inhibition (%)
T-47D = assay: NCI-60 SRB screen; format: cell-based, human; details: Homo sapiens, T47D, single dose 10^−5 M, Breast cancer, read-out: Growth inhibition (%)
MDA-MB-468 = assay: NCI-60 SRB screen; format: cell-based, human; details: Homo sapiens; single dose 10^−5 M; MDA-MB-468, Breast cancer; read-out: Growth inhibition (%)

Row | Compound | inhibition at 10 µM (RPMI-8226; RPMI-8226) [%] | inhibition at 10 µM (HT-29; HT-29) [%] | inhibition at 10 µM (SF-539; SF-539) [%] | inhibition at 10 µM (SNB-19; SNB-19) [%] | inhibition at 10 µM (SNB-75; SNB-75) [%] | inhibition at 10 µM (U251; U251) [%] | inhibition at 10 µM (MALME-3M) [%] | inhibition at 10 µM (A498; A498) [%] | melting point [°C] | inhibition at 10 µM (RPMI-8226; RPMI-8226, Leukaemia) [%] | inhibition at 10 µM (HT-29; HT-29, Colon cancer) [%] | inhibition at 10 µM (SF-539; SF-539, CNS cancer) [%] | inhibition at 10 µM (SNB-19; SNB-19, CNS cancer) [%] | inhibition at 10 µM (SNB-75; SNB-75, CNS cancer) [%] | inhibition at 10 µM (U251; U251, CNS cancer) [%] | inhibition at 10 µM (MALME-3M; Melanoma) [%] | inhibition at 10 µM (OVCAR-5; OVCAR-5, Ovarian cancer) [%] | inhibition at 10 µM (PC-3) [%] | inhibition at 10 µM (DU-145) [%] | inhibition at 10 µM (MCF7) [%] | other results
1 | COc1ccc(C=C2Sc3c(F)cccc3C2=O)c(OC)c1 [Compound 2a, 2-(2,4-Dimethoxybenzylidene)-7-fluoro[1]benzothiophen-3(2H)-one] | -8.46 | -9.18 | -0.64 | -2.1 | 12.6 | -7.91 | 4.19 | -4.03 | 195 to 197 | – | – | – | – | – | – | – | – | – | – | – | inhibition at 10 µM (OVCAR-5; OVCAR-5): -9.42%
2 | O=C1C(=Cc2ccccc2[N+](=O)[O-])Sc2c(F)cccc21 [Compound 2c, 7-Fluoro-2-(2-nitrobenzylidene)[1]benzothiophen-3(2H)-one] | 30.6 | -7.17 | 3.65 | 14.2 | -1.55 | 32.5 | 12.6 | 55.1 | 170 to 172 | – | – | – | – | – | – | – | – | – | – | – | –
3 | COc1ccc(C2NC(=O)C(Cl)c3c2sc2c(F)cccc32)c(OC)c1 (stereo not shown) [Compound 4a, 4-Chloro-1-(2,4-Dimethoxyphenyl)-8-fluoro-1,2-dihydro[1]benzothieno [2,3-c]pyridine-3(4H)-one] | 11.7 | -10.5 | 3.36 | 0.33 | 22.3 | 0.4 | 9.21 | 14.9 | 120 to 122 | – | – | – | – | – | – | – | – | – | – | – | inhibition at 10 µM (OVCAR-5; OVCAR-5): -3.64%
4 | COc1ccc(C2NC(=O)C(Cl)c3c2sc2c(F)cccc32)cc1 (stereo not shown) [Compound 4b, 4-Chloro-8-fluoro-1-(4-methoxyphenyl)-1,2-dihydro[1]benzothieno[2,3-c] pyridine-3(4H)-one] | 7.32 | -6.98 | 15.8 | 7.47 | 22.8 | 21.1 | 10.8 | 11.1 | 154 to 156 | – | – | – | – | – | – | – | – | – | – | – | inhibition at 10 µM (OVCAR-5; OVCAR-5): -12.9%
5 | O=C1NC(c2ccccc2[N+](=O)[O-])c2sc3c(F)cccc3c2C1Cl (stereo not shown) [Compound 4c, 4-Chloro-8-fluoro-1-(2-nitrophenyl)-1,2-dihydro[1]benzothieno[2,3-c] pyridine-3(4H)-one] | 5.9 | -9.93 | 3.36 | -2.16 | 11.7 | 8.82 | 9.46 | -6.23 | 110 to 112 | – | – | – | – | – | – | – | – | – | – | – | inhibition at 10 µM (OVCAR-5; OVCAR-5): -2.88%
6 | N#CC1=C(Cl)NC(c2cccc([N+](=O)[O-])c2)c2sc3c(F)cccc3c21 (stereo not shown) [Compound 7b, 3-Chloro-4-cyano-8-fluoro-1-(3-nitrophenyl)-1,2-dihydro[1]benzothieno [2,3-c]pyridine] | – | – | – | – | – | – | – | – | 140 to 142 | 12.7 | -3.29 | 3.78 | -0.67 | 8.28 | -7.36 | -2.31 | -3.54 | 3.5 | -14.2 | 8.22 | inhibition at 10 µM (A498; A498, Renal cancer): 19.7%; inhibition at 10 µM (MDA-MB-231/ATCC): 7.25%; inhibition at 10 µM (BT-549): -2.93%; inhibition at 10 µM (T-47D): -9.14%; inhibition at 10 µM (MDA-MB-468): -7.25%
7 | O=[N+]([O-])c1cccc(C2NC(N3CCOCC3)=C(Cl)c3c2sc2c(F)cccc32)c1 (stereo not shown) [Compound 8b, 4-Chloro-3-(4-morpholino)-8-fluoro-1-(3-nitrophenyl)-1,2-dihydro [1]benzothieno[2,3-c]pyridine] | – | – | – | – | – | – | – | – | 175 to 177 | 16.2 | 0.78 | 6.36 | 1.4 | 10.4 | 6.85 | -3.09 | 8.49 | 14.5 | -1.71 | 21 | inhibition at 10 µM (A498; A498, Renal cancer): 10.4%; inhibition at 10 µM (MDA-MB-231/ATCC): 18.8%; inhibition at 10 µM (BT-549): 4.09%; inhibition at 10 µM (T-47D): 20.8%; inhibition at 10 µM (MDA-MB-468): 1.73%
8 | O=[N+]([O-])c1cccc(C2NC(N3CCCCC3)=C(Cl)c3c2sc2c(F)cccc32)c1 (stereo not shown) [Compound 8c, 4-Chloro-3-(piperidin-1-yl)-8-fluoro-1-(3-nitrophenyl)-1,2-dihydro [1]benzothieno[2,3-c]pyridine] | – | – | – | – | – | – | – | – | 241 to 243 | 8.74 | -2.62 | -6.63 | -3.36 | 22.4 | -7.81 | 4.61 | -1.61 | 11.9 | -12.5 | 23.3 | inhibition at 10 µM (MDA-MB-231/ATCC): 13.9%; inhibition at 10 µM (BT-549): -10.5%; inhibition at 10 µM (T-47D): 17.5%; inhibition at 10 µM (MDA-MB-468): -13.9%
9 | N#CC1=C(N2CCCCC2)NC(c2cccc([N+](=O)[O-])c2)c2sc3c(F)cccc3c21 (stereo not shown) [Compound 8f, 4-Cyano-3-(piperidin-1-yl)-8-fluoro-1-(3-nitrophenyl)-1,2-dihydro [1]benzothieno[2,3-c]pyridine] | – | – | – | – | – | – | – | – | 280 to 282 | 14.9 | -4.42 | 6.49 | 1.38 | 5.45 | -6.11 | -10.6 | 5.19 | 8.87 | -8.32 | -0.95 | inhibition at 10 µM (A498; A498, Renal cancer): -0.87%; inhibition at 10 µM (MDA-MB-231/ATCC): 15.1%; inhibition at 10 µM (BT-549): 1.03%; inhibition at 10 µM (T-47D): 2.45%; inhibition at 10 µM (MDA-MB-468): -8.03%
10 | O=[N+]([O-])c1cccc(C2NC3=C(Nc4ccccc4N3)c3c2sc2c(F)cccc32)c1 (stereo not shown) [Compound 9, 9-Fluoro-7-(3-nitrophenyl)-5,6,7,13-tetrahydro[1]benzothieno[3′,2′:4,5]-pyrido[2,3-b]quinoxaline] | – | – | – | – | – | – | – | – | 160 to 162 | 12.1 | -5.27 | 3.93 | -0.03 | 10.2 | -3.59 | -7.56 | 3.15 | 7.47 | -11.4 | 1.91 | inhibition at 10 µM (A498; A498, Renal cancer): -0.12%; inhibition at 10 µM (MDA-MB-231/ATCC): 17.8%; inhibition at 10 µM (BT-549): 5.02%; inhibition at 10 µM (T-47D): -5.91%; inhibition at 10 µM (MDA-MB-468): -10.6%
